Reference: patent US11440880B2, “Thalidomide analogs and methods of use” (The USA, as represented by the Secretary, Department of …, priority 2015, dated 2022)
Entries after “also recorded” stand apart in the source; their conditions may differ.

Experiments:
[1] = system: human saphenous vein sections (microvessel outgrowth); assay: Human saphenous vein assay of angiogenesis (ex vivo); assay type: cell-based; details: positive control, 10 days of incubation
Method: The saphenous vein was cleaned of subcutaneous tissue and embedded in Matrigel® matrix as previously described. After 10 days of incubation, the transverse sections of the veins were imaged. The outgrowth between the vehicle and no treatment (media) control was equivalent (106.65%±20.14, n=2 and 103.35%±4.06, n=2 respectively; FIGS. 13A and 13B).

[2] = system: mpo:GFP zebrafish embryos (neutrophil migration to the wound site); assay: mpo:GFP zebrafish fin-clip neutrophil migration (inflammation) assay; assay type: in vivo; design: mpo:GFP inflammation n (survived/tested): concentration or dose not given beside the values; details: for minimal effective concentration: Danio rerio, Neutrophil, lowest concentration producing an effect, compounds not producing an effect shown at the highest evaluated concentration; for mpo:GFP inflammation n (survived/tested): embryos survived/tested at the concentration given
In short: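 Tg(mpo::EGFP) larvae tail-fin clipped (dorsal third removed) at 72 hpf, then immersed in compound or vehicle. Neutrophils migrating to the wound site counted from images 24 h later; at least 50% reduction scored as anti-inflammatory. Viability and morphology also assessed.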

[3] = system: fli1:EGFP zebrafish embryos (intersegmental vessel growth); assay: fli1:EGFP zebrafish embryo angiogenesis assay; assay type: in vivo; design: fli1:EGFP angiogenesis n (survived/tested): concentration or dose not given beside the values; details: for minimal effective concentration: Danio rerio, lowest concentration producing an effect, compounds not producing an effect shown at the highest evaluated concentration; for fli1:EGFP angiogenesis n (survived/tested): embryos alive after 24 hours of exposure
In short: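 fli1:EGFP embryos grown 24 hpf, dechorionated and exposed to compound or vehicle over a range of concentrations for up to 24 h, with CPS49 as positive control. Imaged at 48 hpf for intersegmental vessel formation and growth; survival after 24 h exposure recorded, and values reflect the lowest concentration producing an effect.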

[4] = system: chicken embryos; assay: Chicken embryo development / teratogenicity; assay type: in vivo, white leghorn chicken; details: in words; applied at HH stage 17-18
Method: Chicken Embryology: Fertilized white leghorn chicken embryos were incubated at 38° C. and staged according to Hamburger and Hamilton (HH) stages of development (1951). Embryos were tested at HH stage 17-18 (day 2.5). Following membrane removal, test compounds or vehicle control solutions were applied globally over the embryo. The eggs were sealed and the development of the embryos was monitored up to HH stage 30 (E9).
Compounds of interest were screened in chicken embryos (FIGS. 7I-7P).
(§1) Concentrations used in the WT zebrafish and chicken embryo assays to assess for teratogenesis, were equal to or higher than those utilized in the fil1:EGFP and mpo:GFP zebrafish assays

[5] = system: WT zebrafish embryos; assay: WT zebrafish embryo development / teratogenicity; assay type: in vivo, zebrafish (Danio rerio); details: in words; at concentrations active in fli1:EGFP or mpo:GFP assays
Text: To determine the effects of the candidate compounds on embryonic development, two in vivo model systems (developing zebrafish and chicken embryos) were utilized.
Malformations in the development of the zebrafish embryo were noted, including inhibition of eye, otic vesicle and fin development (FIGS. 7A-7F). […] Embryos were screened at concentrations previously determined, in this study, to be anti-angiogenic or anti-inflammatory in the fli1:EGFP and mpo:GFP assays respectively.
as §1

[6] = system: nitrite levels in the culture media; assay: Nitrite level (Griess Reagent System) in LPS-challenged RAW 264.7 cells; assay type: cell-based, mouse; design: key: NS=not significant; a “+” sign=anti-inflammatory or increased cell numbers; a “−” sign=cell toxicity or pro-inflammatory; details: LPS 30 or 60 ng/mL, 24 h
In short: (§2)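 RAW 264.7 cells pretreated 1 h with compound in DMSO vehicle, then challenged with LPS (30 or 60 ng/mL) for 24 h at 37° C. Conditioned-media nitrite by Griess (520 nm, sodium nitrite standard curve, 1.5 μM cutoff) in μM; mouse TNF-α by ELISA as pg/ml or % change from control.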

[7] = system: TNF-α protein; assay: TNF-α protein level (ELISA) in LPS-challenged RAW 264.7 cells; assay type: cell-based, mouse; design: key: NS=not significant; a “+” sign=anti-inflammatory or increased cell numbers; a “−” sign=cell toxicity or pro-inflammatory; details: LPS 30 or 60 ng/mL, 24 h
In short: as §2

[8] = system: RAW 264.7 cells; assay: Cell viability (CellTiter 96 AQueous One) of LPS-challenged RAW 264.7 cells; assay type: cell-based, mouse; design: key: NS=not significant; a “+” sign=anti-inflammatory or increased cell numbers; a “−” sign=cell toxicity or pro-inflammatory
In short: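 RAW 264.7 murine macrophages pretreated 1 h with compound or DMSO vehicle, then challenged with LPS (serotype 055:B5) at 30 or 60 ng/mL final for 24 h. After media replacement, viability measured by tetrazolium (MTS) conversion, absorbance at 490 nm, reported as O.D.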

Row | SMILES | vessel outgrowth [1] | minimal effective concentration [2] [µg/mL] | mpo:GFP inflammation n (survived/tested) [2] | minimal effective concentration [3] [µg/mL] | fli1:EGFP angiogenesis n (survived/tested) [3] | effect on development / mortality of chicken embryos [4] | effect on development / mortality of zebrafish embryos [5] | concentration at which anti-angiogenic activity was shown ([3]; exposure from 24 hpf, imaged at 48 hpf) [µg/mL] | Nitrite ([6]; 1 μM) | Nitrite ([6]; 10 μM) | Nitrite ([6]; 30 μM) | TNF-α ([7]; 1 μM) | TNF-α ([7]; 10 μM) | TNF-α ([7]; 30 μM) | Viability ([8]; 1 μM) | Viability ([8]; 10 μM) | Viability ([8]; 30 μM)
1 | CO[C@@H]1[C@H](OC(=O)NC(=O)CCl)CC[C@]2(CO2)[C@H]1[C@@]1(C)O[C@@H]1CC=C(C)C [TNP-470, (Chloracetyl) carbamic acid (3R,4S,5S,6R)-5-methoxy-4-[(2R,3R)-2-methyl-3-(3-methyl-2-butenyl)oxiranyl]-1-oxaspiro[2.5]oct-6-yl ester, reference compound] | 9.44%±1.65 |  |  |  |  |  |  |  |  |  |  |  |  |  |  |  | 
2 | Nc1ccc2c(c1)C(=O)N(C1CCC(=O)NC1=O)C2=O (stereo not drawn) [Compound 11] |  | 10 | 16/22 | 50 | 24/43 | missing digits in the hindlimb; also recorded: limb reduction defect |  |  |  |  |  |  |  |  |  |  | 
3 | O=C1c2ccccc2C(=S)N1C1CCC(=S)NC1=S (stereo not drawn) [Compound 4] |  | 10 | 19/23 | 1.5 | 4/11 | defects and high mortality rates | defects and high mortality rates; also recorded: induced defects (e.g., microophthalmia and fin malformation) | 1.5 |  |  |  |  |  |  |  |  | 
4 | CC(N1Cc2c(cccc2[N+](=O)[O-])C1=O)C12CC3CC(CC(C3)C1)C2 (stereo not drawn) [Compound 80] |  |  |  |  |  | microophthalmia (asterisk), limb reduction (white arrow), and hemorrhaging throughout the body |  |  | NS | + | + | NS | + | + | NS | − | NS
5 | O=C1NC(=S)CCC1N1C(=O)c2ccc(Cl)cc2C1=O (stereo not drawn) [Compound 23] |  | 10 | 13/35 | 10 | 23/30 | constriction in vasculature (white arrow) and necrosis (black arrow) of the chorioallantoic membrane |  |  |  |  |  |  |  |  |  |  | 
6 | O=C1c2cccc([N+](=O)[O-])c2CN1C12CC3CC(CC1C3)C2 [Compound 84] |  | 10 | 12/21 | 50 | 2/11 |  |  |  | NS | + | + | NS | NS | NS | NS | NS | NS
7 | O=C1c2ccccc2CN1C12CC3CC(CC(C3)C1)C2 [Compound 69] |  | 200 | 8/17 | 10 | 6/14 |  |  |  | NS | NS | NS | NS | NS | NS | NS | NS | NS
8 | O=C1c2ccccc2CN1c1ccc(C(F)(F)F)cc1 [Compound 68] |  | 100 | 5/15 | 10 | 22/34 |  |  |  | NS | NS | NS | NS | NS | NS | NS | NS | NS
9 | Nc1cccc2c1CN(C13CC4CC(CC1C4)C3)C2=O [Compound 85] |  | 100 | 11/20 | 10 | 7/20 |  |  |  | NS | NS | − | NS | NS | NS | NS | NS | NS
10 | CC(N1Cc2ccccc2C1=S)C12CC3CC(CC(C3)C1)C2 (stereo not drawn) [Compound 74, 2,3-Dihydro-2-[1-(1-tricyclo[3.3.1.1^3,7]dec-1-yl)ethyl]-1H-isoindol-1-thione] |  | 200 | 6/14 | 10 | 9/15 |  |  |  | NS | NS | + | NS | NS | NS | NS | NS | NS
